Assay results taken from article PMC5882164, “A novel calcimimetic agent, evocalcet (MT-4580/KHK7580), suppresses the parathyroid cell function with little effect on the gastrointestinal tract or CYP isozymes in vivo and in vitro” (PLoS ONE, 2018).
Where “and” joins values, the source holds several entries; their conditions need not be identical. Equal values may be shown once.

Assays:
[1] = Plasma concentrations of evocalcet after repeated oral administration to 5/6 nephrectomized rats; type: in vivo, rat; conditions: 5/6 Nx rats
Method: In the single-dose study, blood samples were collected from the tail vein before and at 0.5, 2, 4, 8, 24, 48, and 72 h after the oral administration of vehicle (0.5% methyl cellulose solution) or evocalcet (0.03, 0.1, 0.3, or 1 mg/kg). In the repeated-dose study, vehicle or evocalcet was orally administered to the respective groups once daily for 14 days. Blood samples were obtained from the tail vein before the first administration and after the seventh and last administrations.
The plasma concentrations of evocalcet were determined after single or repeated oral administration in both normal and 5/6 Nx rats. The pharmacokinetic (PK) parameters of the rat plasma concentrations were calculated individually using Phoenix WinNonlin 6.2, a PK analysis software program (Pharsight Corporation, Sunnyvale, CA).

CYP2B6 = biological target: T1, CYP2B6 (Homo sapiens, UniProt P20813); assay: CYP inhibition assay in human liver microsomes; type: in vitro ADME; conditions: no pre-incubation, read-out: IC50 direct inhibition of CYP2B6
T1 construct: from tissue; host or cells: human liver microsomes
T1 sequence (P20813 1-491): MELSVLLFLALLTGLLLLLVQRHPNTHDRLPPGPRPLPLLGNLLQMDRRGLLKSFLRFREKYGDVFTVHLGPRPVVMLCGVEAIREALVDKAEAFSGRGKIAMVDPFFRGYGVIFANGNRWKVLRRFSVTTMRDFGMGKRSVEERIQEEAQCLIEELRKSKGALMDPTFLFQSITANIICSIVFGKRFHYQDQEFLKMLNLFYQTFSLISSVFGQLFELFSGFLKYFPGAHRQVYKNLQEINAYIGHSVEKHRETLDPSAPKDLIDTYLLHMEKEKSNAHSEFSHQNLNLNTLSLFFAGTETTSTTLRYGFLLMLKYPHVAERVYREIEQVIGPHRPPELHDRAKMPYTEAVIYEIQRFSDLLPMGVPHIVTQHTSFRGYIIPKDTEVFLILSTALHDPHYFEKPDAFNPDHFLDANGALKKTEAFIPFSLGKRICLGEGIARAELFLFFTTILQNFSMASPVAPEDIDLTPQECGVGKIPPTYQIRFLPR
Method: (§1) The direct inhibition of evocalcet (0.15~50 μM, 6-point concentrations) against the specific activities of 9 CYP isozymes (CYP1A2, CYP2A6, CYP2B6, CYP2C8, CYP2C9, CYP2C19, CYP2D6, CYP2E1, and CYP3A4/5) was examined in human liver microsomes without the pre-incubation of evocalcet, in the presence of the NADPH-generating system. Each CYP substrate was incubated with human liver microsomes in the absence or presence of evocalcet, and the inhibition of evocalcet for each CYP isozyme was measured.

CYP2C8 = biological target: T2, CYP2C8 (Homo sapiens, UniProt P10632); assay: CYP inhibition assay in human liver microsomes; type: in vitro ADME; conditions: no pre-incubation, read-out: IC50 direct inhibition of CYP2C8
T2 construct: from tissue; host or cells: human liver microsomes
T2 sequence (P10632 1-490): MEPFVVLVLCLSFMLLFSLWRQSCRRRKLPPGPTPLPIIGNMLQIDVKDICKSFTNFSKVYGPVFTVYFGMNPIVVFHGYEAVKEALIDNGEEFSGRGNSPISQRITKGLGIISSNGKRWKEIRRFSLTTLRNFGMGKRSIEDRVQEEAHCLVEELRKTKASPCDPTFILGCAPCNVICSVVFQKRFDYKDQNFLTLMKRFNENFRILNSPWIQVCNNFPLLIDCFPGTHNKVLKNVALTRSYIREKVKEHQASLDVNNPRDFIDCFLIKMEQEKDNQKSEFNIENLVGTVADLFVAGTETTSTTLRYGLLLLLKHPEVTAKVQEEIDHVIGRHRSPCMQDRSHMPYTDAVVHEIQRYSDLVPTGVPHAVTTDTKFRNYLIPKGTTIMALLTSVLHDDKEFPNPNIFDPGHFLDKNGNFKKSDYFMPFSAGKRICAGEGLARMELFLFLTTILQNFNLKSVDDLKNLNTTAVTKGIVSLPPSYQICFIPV
Method: as §1

CYP2D6 = CYP2D6 (Homo sapiens, UniProt P10635); assay: CYP inhibition assay in human liver microsomes; type: in vitro ADME; conditions: no pre-incubation
Method: as §1

Sequence of CYP2D6 (P10635 whole entry): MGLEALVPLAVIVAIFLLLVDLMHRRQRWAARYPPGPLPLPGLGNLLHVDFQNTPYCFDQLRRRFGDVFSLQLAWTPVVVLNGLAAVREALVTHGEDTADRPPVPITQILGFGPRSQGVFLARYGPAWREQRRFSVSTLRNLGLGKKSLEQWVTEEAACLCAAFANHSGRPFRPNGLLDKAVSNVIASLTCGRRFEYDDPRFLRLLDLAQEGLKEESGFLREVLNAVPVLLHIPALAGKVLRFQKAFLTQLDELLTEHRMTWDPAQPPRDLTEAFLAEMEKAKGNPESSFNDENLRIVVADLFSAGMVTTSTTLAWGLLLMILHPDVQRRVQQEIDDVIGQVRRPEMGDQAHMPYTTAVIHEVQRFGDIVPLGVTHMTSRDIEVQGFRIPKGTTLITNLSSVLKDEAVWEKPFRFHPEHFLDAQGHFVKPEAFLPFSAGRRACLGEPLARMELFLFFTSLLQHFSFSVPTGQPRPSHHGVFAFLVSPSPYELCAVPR

C[C@@H](N[C@H]1CCN(c2ccc(CC(=O)O)cc2)C1)c1cccc2ccccc12 [evocalcet]
Plasma concentration ([1]; repeated oral 0.03 mg/kg, Day 1, 0.5 h, individual rats, 0.03 mg/kg): 36.58 ng/mL and 70.85 ng/mL and 82.54 ng/mL and 69.68 ng/mL and 77.69 ng/mL and 41.93 ng/mL and 76.13 ng/mL
Plasma concentration ([1]; repeated oral 0.03 mg/kg, Day 1, 0.5 h, mean): 64.96 ng/mL
Plasma concentration ([1]; repeated oral 0.03 mg/kg, Day 1, 24 h, individual rats, 0.03 mg/kg): 1.641 ng/mL and 1.374 ng/mL and 5.810 ng/mL and 8.969 ng/mL and 1.766 ng/mL and 7.813 ng/mL and 3.603 ng/mL
Plasma concentration ([1]; repeated oral 0.03 mg/kg, Day 1, 24 h, mean): 4.696 ng/mL
Plasma concentration ([1]; repeated oral 0.03 mg/kg, Day 7, 24 h, individual rats, 0.03 mg/kg): 2.975 ng/mL and 2.144 ng/mL and 14.97 ng/mL and 24.57 ng/mL and 7.857 ng/mL and 2.119 ng/mL and 5.014 ng/mL
Plasma concentration ([1]; repeated oral 0.03 mg/kg, Day 7, 24 h, mean): 6.838 ng/mL
Plasma concentration ([1]; repeated oral 0.03 mg/kg, Day 14, 0.5 h, individual rats, 0.03 mg/kg): 19.34 ng/mL and 56.51 ng/mL and 53.07 ng/mL and 90.16 ng/mL and 75.39 ng/mL and 23.11 ng/mL and 72.02 ng/mL
Plasma concentration ([1]; repeated oral 0.03 mg/kg, Day 14, 0.5 h, mean): 51.46 ng/mL
Plasma concentration ([1]; repeated oral 0.03 mg/kg, Day 14, 24 h, individual rats, 0.03 mg/kg): 3.012 ng/mL and 3.971 ng/mL and 9.010 ng/mL and 15.92 ng/mL and 10.68 ng/mL and 0.6289 ng/mL and 6.008 ng/mL
Plasma concentration ([1]; repeated oral 0.03 mg/kg, Day 14, 24 h, mean): 9.081 ng/mL
Plasma concentration ([1]; repeated oral 0.1 mg/kg, Day 1, 0.5 h, individual rats, 0.1 mg/kg): 202.3 ng/mL and 254.1 ng/mL and 209.7 ng/mL and 142.8 ng/mL and 254.2 ng/mL and 143.9 ng/mL and 56.83 ng/mL and 269.5 ng/mL
Plasma concentration ([1]; repeated oral 0.1 mg/kg, Day 1, 24 h, individual rats, 0.1 mg/kg): 15.16 ng/mL and 12.10 ng/mL and 8.688 ng/mL and 14.16 ng/mL and 21.79 ng/mL and 16.89 ng/mL and 67.75 ng/mL and 32.61 ng/mL
Plasma concentration ([1]; repeated oral 0.1 mg/kg, Day 7, 24 h, individual rats, 0.1 mg/kg): 58.71 ng/mL and 48.75 ng/mL and 30.51 ng/mL and 37.24 ng/mL and 78.95 ng/mL and 69.59 ng/mL and 161.4 ng/mL and 61.03 ng/mL
Plasma concentration ([1]; repeated oral 0.1 mg/kg, Day 14, 0.5 h, individual rats, 0.1 mg/kg): 127.4 ng/mL and 39.41 ng/mL and 36.70 ng/mL and 54.83 ng/mL and 93.73 ng/mL and 108.2 ng/mL and 128.5 ng/mL and 174.0 ng/mL
Plasma concentration ([1]; repeated oral 0.1 mg/kg, Day 14, 24 h, individual rats, 0.1 mg/kg): 5.812 ng/mL and 5.988 ng/mL and 9.558 ng/mL and 3.499 ng/mL and 32.22 ng/mL and 49.20 ng/mL and 104.7 ng/mL and 11.96 ng/mL
Plasma concentration ([1]; 0.03 mg/kg oral once daily, Day 1, 0.5 h, mean, n = 12): 64.96 ng/mL
Plasma concentration ([1]; 0.03 mg/kg oral once daily, Day 1, 24 h, mean, n = 12): 4.696 ng/mL
Plasma concentration ([1]; 0.03 mg/kg oral once daily, Day 7, 24 h, mean, n = 12): 6.838 ng/mL
Plasma concentration ([1]; 0.03 mg/kg oral once daily, Day 14, 0.5 h, mean, n = 12): 51.46 ng/mL
Plasma concentration ([1]; 0.03 mg/kg oral once daily, Day 14, 24 h, mean, n = 12): 9.081 ng/mL
Plasma concentration ([1]; 0.1 mg/kg oral once daily, Day 1, 0.5 h, mean, n = 12): 204.2 ng/mL
Plasma concentration ([1]; 0.1 mg/kg oral once daily, Day 1, 24 h, mean, n = 12): 21.78 ng/mL
Plasma concentration ([1]; 0.1 mg/kg oral once daily, Day 7, 24 h, mean, n = 12): 53.46 ng/mL
Plasma concentration ([1]; 0.1 mg/kg oral once daily, Day 14, 0.5 h, mean, n = 12): 133.8 ng/mL
Plasma concentration ([1]; 0.1 mg/kg oral once daily, Day 14, 24 h, mean, n = 12): 29.24 ng/mL
Plasma concentration ([1]; 0.3 mg/kg oral once daily, Day 1, 0.5 h, mean, n = 12): 545.5 ng/mL
Plasma concentration ([1]; 0.3 mg/kg oral once daily, Day 1, 24 h, mean, n = 12): 90.48 ng/mL
Plasma concentration ([1]; 0.3 mg/kg oral once daily, Day 7, 24 h, mean, n = 12): 190.6 ng/mL
Plasma concentration ([1]; 0.3 mg/kg oral once daily, Day 14, 0.5 h, mean, n = 12): 686.9 ng/mL
Plasma concentration ([1]; 0.3 mg/kg oral once daily, Day 14, 24 h, mean, n = 12): 102.1 ng/mL
Plasma concentration ([1]; 1 mg/kg oral once daily, Day 1, 0.5 h, mean, n = 12): 1635 ng/mL
Plasma concentration ([1]; 1 mg/kg oral once daily, Day 1, 24 h, mean, n = 12): 285.7 ng/mL
Plasma concentration ([1]; 1 mg/kg oral once daily, Day 7, 24 h, mean, n = 12): 557.2 ng/mL
Plasma concentration ([1]; 1 mg/kg oral once daily, Day 14, 0.5 h, mean, n = 12): 1769 ng/mL
Plasma concentration ([1]; 1 mg/kg oral once daily, Day 14, 24 h, mean, n = 12): 490.6 ng/mL
IC50 (CYP2B6): > 50 µM
IC50 (CYP2C8): > 50 µM
CYP2D6 activity in the presence of evocalcet (CYP2D6; 50 μM evocalcet, direct inhibition): 50.7%
IC50 (CYP2D6; read-out: IC50 direct inhibition of CYP2D6): > 50 µM
